Data published in patent US7939263B2, “Compositions and methods for treating and diagnosing cancer” (The Regents of the University of Michigan, priority 2005, dated 2011).

Tested on: PE13 passaged human breast tumor cells
Assay: Xenograft tumor growth after gamma secretase inhibition
Type: in vivo
Protocol: A) The average tumor volume from L-685-458 treated (n=5) versus control (n=7) animals is plotted for each day measured over 37 days. B) The tumor volume of individual L-685-458 treated and control mice is plotted for each day measured.
In alternative embodiments, gamma secretase activity was decreased using the small-molecule inhibitor L-685,458 (Yan et al., 2004, J. Neurosci. 24:2942) and the effect on tumor growth was assessed in a xenograft model. 20,000 PE13 passaged human breast tumor cells were injected into the mammary fat pads of NOD/SCID mice. The mice were then injected subcutaneously daily with 9 mg/kg L-685,458 (n=5) or vehicle control (n=7) for 25 days. Starting on day 11, the tumor volume was measured three times a week for a total of 48 days. […] The tumor volumes for individual mice are plotted in FIG. 13B. Thus inhibiting gamma secretase activity by using a small molecule gamma secretase inhibitor predicted to reduce Notch signaling reduced tumor growth.

SMILES: CC(C)C[C@H](NC(=O)[C@H](Cc1ccccc1)C[C@@H](O)[C@H](Cc1ccccc1)NC(=O)OC(C)(C)C)C(=O)N[C@@H](Cc1ccccc1)C(N)=O [L-685,458]
- growth of injected tumor cells (20,000 PE13 cells in mammary fat pads of NOD/SCID mice, 9 mg/kg subcutaneously daily for 25 days (n=5) vs vehicle control (n=7)): significantly inhibited the growth of injected tumor cells
- average tumor volume (NOD/SCID mice, 9 mg/kg s.c. daily for 25 days, measured three times a week from day 11, total 48 days, vs vehicle control): reduced compared to control animals throughout the study
